Results published in article PMC10313662, “Structural insights into neurokinin 3 receptor activation by endogenous and analogue peptide agonists” (Cell Discovery, 2023).
Ends that are not written are not given here.

Key:
NK1R, NK2R, NK3R = conditions: ref [21]; cited from earlier work
NK3R V235A [1] = molecular target: T1, NK3R V235A (human, UniProt P29371 1-465, NK3R-V235^ECL2 to alanine)
T1 sequence (looked up): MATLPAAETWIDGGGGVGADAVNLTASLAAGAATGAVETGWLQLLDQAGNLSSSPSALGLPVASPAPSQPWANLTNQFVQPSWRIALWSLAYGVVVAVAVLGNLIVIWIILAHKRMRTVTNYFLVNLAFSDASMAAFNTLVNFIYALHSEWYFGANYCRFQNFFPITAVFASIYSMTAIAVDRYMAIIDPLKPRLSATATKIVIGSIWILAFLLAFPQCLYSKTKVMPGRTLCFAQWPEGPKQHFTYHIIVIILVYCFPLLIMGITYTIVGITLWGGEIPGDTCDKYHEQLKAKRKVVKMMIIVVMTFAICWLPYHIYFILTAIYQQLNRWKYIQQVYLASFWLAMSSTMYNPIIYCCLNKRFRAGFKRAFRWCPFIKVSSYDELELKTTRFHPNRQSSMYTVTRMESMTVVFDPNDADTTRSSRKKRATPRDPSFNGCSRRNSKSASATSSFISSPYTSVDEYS

wild-type NK3R = molecular target: T2, wild-type NK3R (Homo sapiens, UniProt P29371); assay: IP-one accumulation assay, wild-type NK3R; format: cell-based
T2 construct: FLAG (DYKDDDDK); expressed in transfected cells; host or cells: HEK293T
T2 sequence (P29371 1-465): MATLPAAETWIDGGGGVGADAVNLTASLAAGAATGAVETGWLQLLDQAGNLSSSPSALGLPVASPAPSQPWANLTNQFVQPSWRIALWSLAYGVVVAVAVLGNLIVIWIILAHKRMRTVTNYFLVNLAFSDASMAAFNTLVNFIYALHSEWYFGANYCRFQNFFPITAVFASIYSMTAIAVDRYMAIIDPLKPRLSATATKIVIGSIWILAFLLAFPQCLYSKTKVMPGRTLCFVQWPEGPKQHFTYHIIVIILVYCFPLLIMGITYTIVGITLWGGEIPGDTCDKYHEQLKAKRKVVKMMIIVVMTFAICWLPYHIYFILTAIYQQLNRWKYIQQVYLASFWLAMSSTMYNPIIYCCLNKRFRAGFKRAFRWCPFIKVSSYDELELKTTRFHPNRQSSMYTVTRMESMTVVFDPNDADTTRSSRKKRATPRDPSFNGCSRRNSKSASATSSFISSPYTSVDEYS

NK3R V235A [2] = molecular target: T1, NK3R V235A; assay: cell-based or functional assay

neurokinin A [NKA]
Preferential receptor activation/binding, in words (NK1R, NK2R, NK3R): preferentially bind to NK1R and NK2R, respectively

senktide (suc-(Asp6, MePhe8) SP (6–11)) (peptide)
IP-one accumulation, HEK293T cells; fold decrease in receptor activation against wild-type NK3R, stimulated by senktide (NK3R V235A [1]): 64 fold

CSCC[C@H](NC(=O)[C@H](CC(C)C)NC(=O)CNC(=O)[C@H](Cc1ccccc1)NC(=O)[C@H](Cc1ccccc1)NC(=O)[C@H](CCC(N)=O)NC(=O)[C@H](CCC(N)=O)NC(=O)[C@@H]1CCCN1C(=O)[C@H](CCCCN)NC(=O)[C@@H]1CCCN1C(=O)[C@@H](N)CCCNC(=N)N)C(N)=O [SP, substance P]
Emax (wild-type NK3R): 100%

CSCC[C@H](NC(=O)[C@H](CC(C)C)NC(=O)CNC(=O)[C@@H](NC(=O)[C@H](Cc1ccccc1)NC(=O)[C@H](Cc1ccccc1)NC(=O)[C@H](CC(=O)O)NC(=O)[C@H](Cc1c[nH]cn1)NC(=O)[C@H](CCSC)NC(=O)[C@@H](N)CC(=O)O)C(C)C)C(N)=O [NKB, neurokinin B]
Emax (wild-type NK3R): 100%

B1: substance P (peptide, UniProt P20366 58-68, looked up)
peptide: RPKPQQFFGLM-NH2
IP-one accumulation, HEK293T cells; fold decrease in receptor activation against wild-type NK3R, stimulated by SP (NK3R V235A [2]): 30 fold

B2: neurokinin B (peptide, UniProt Q9UHF0 81-90, looked up)
peptide: DMHDFFVGLM-NH2
IP-one accumulation, HEK293T cells; fold decrease in receptor activation against wild-type NK3R, stimulated by NKB (NK3R V235A [2]): 5.2 fold
